Assays:
Format in all cases: biochemical
CDK1/Cyclin B = CDK1/Cyclin B (Homo sapiens, UniProt P06493); experiment: CDK1/Cyclin B kinase assay (FlashPlate or HTRF); details: recombinant human CDK1/Cyclin B, Rb substrate; Ki=IC50/(1+[S]/Km)
Procedure: To determine inhibition of CDK1 activity, either FlashPlate™ (NEN™-Life Science Products) assay or HTRF assay was performed. Both types of kinase assays were carried out using recombinant human CDK1/Cyclin B complex. GST-cyclinB (GST-cycB) and CDK1 cDNA clones in baculovirus vectors were provided by Dr. W. Harper at the Baylor College of Medicine, Houston, Tex. Proteins were co-expressed in High Five™ insect cells and the complex was purified on glutathione Sepharose resin (Pharmacia, Piscataway, N.J.) as previously described (Harper, J. W. et al. Cell 1993, 75, 805-816). A 6×-Histidine tagged truncated form of retinoblastoma (Rb) protein (amino acid 386-928) was used as the substrate for the CDK1/Cyclin B assay (the expression plasmid was provided by Dr. Veronica Sullivan, Department of Molecular Virology, Roche Research Centre, Welwyn Garden City, United Kingdom). The Rb protein is a natural substrate for phosphorylation by CDK1 (see Herwig and Strauss Eur. J. Biochem. Vol. 246 (1997) pp. 581-601 and the references cited therein). The expression of the 62 Kd protein was under the control of an IPTG inducible promoter in an M15 E. coli strain. Cells were lysed by sonication and purification was carried out by binding lysates at pH 8.0 to a Ni-chelated agarose column pretreated with 1 mM imidazole. The resin was then washed several times with incrementally decreasing pH buffers to pH 6.0, and eluted with 500 mM imidazole. Eluted protein was dialysed against 20 mM HEPES pH 7.5, 30% glycerol, 200 mM NaCl, and 1 mM DTT. Purified Rb fusion protein stocks were quantitated for protein concentration, aliquoted, and stored at −70° C.
For the FlashPlate kinase assay, 96-well FlashPlates were coated with Rb protein at 10 μg/ml, using 100 μl per well. Plates were incubated at 4° C. overnight or at room temperature for 3 hours on a shaker. To control for nonspecific phosphorylation, one row of wells was coated with 100 μl/well coating buffer (20 mM HEPES, 0.2 M NaCl). Plates were then washed twice with wash buffer (0.01% Tween 20 in phosphate-buffered saline). Compounds to be tested (“test compounds”) were added to the wells at 5×final concentration. Reactions were initiated by immediate addition of 40 μl reaction mix (25 mM HEPES, 20 mM MgCl2, 0.002% Tween 20, 2 mM DTT, 1 μM ATP, 3.3 nM 33P-ATP) and a sufficient amount of enzyme to give counts that were at least 10-fold above background. Plates were incubated at room temperature on a shaker for 30 minutes. Plates were washed four times with the wash buffer, sealed, and counted on the TopCount scintillation counter (Packard Instrument Co., Downers Grove, Ill.). The percent inhibition of Rb phosphorylation, which is a measure of the inhibition of CDK1 activity, was determined according to the following formula:
[formula] where “test compound” refers to the average counts per minute of the test duplicates, “nonspecific” refers to the average counts per minute when no CDK1/Cyclin B, etc., was added, and “total” refers to the average counts per minute when no compound was added. […] The value of the inhibitor constant Ki is calculated by the following: Ki=IC50/(1+[S]/Km), where [S] is the ATP concentration and Km is Michaelis constant.
The Homogeneous Time Resolved Fluorescence (HTRF) kinase assay was carried out in 96-well polypropylene plates (BD Biosciences, Bedford, Mass.). […]

CDK4 = CDK4 (Homo sapiens, UniProt P11802); experiment: CDK4 kinase inhibition (selectivity)
Chain of CDK4 (P11802 whole entry, species assumed): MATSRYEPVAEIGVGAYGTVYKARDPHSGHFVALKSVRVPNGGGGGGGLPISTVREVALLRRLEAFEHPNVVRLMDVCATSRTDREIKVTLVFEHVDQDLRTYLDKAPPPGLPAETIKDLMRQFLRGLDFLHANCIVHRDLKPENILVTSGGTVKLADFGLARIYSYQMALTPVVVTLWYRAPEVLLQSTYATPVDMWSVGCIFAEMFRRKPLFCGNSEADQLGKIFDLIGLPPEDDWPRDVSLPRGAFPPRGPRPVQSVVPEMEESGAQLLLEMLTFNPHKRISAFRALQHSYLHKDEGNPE
Chain of CDK4 (P24385 whole entry partner, species assumed): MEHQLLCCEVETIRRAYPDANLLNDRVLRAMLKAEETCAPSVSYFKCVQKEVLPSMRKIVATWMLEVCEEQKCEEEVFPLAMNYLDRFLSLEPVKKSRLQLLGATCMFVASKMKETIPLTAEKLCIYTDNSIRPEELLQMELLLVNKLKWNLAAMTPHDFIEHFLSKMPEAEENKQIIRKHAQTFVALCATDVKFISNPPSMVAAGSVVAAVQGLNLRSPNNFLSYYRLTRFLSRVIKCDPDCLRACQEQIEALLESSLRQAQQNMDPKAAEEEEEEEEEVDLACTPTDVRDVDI

CDK2 = CDK2 (Homo sapiens, UniProt P24941); experiment: CDK2 kinase inhibition (selectivity)

Chain of CDK1/Cyclin B (P06493 whole entry, the tested form may be a part): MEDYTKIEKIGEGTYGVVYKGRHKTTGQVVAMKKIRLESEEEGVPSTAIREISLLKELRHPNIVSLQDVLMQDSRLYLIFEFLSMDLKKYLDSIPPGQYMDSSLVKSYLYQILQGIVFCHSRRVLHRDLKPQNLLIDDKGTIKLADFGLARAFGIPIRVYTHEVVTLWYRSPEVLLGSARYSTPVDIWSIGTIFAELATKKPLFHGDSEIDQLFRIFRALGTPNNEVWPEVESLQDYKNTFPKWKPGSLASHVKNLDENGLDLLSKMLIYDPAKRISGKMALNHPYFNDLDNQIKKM
Chain of CDK1/Cyclin B (P14635 whole entry partner, the tested form may be a part): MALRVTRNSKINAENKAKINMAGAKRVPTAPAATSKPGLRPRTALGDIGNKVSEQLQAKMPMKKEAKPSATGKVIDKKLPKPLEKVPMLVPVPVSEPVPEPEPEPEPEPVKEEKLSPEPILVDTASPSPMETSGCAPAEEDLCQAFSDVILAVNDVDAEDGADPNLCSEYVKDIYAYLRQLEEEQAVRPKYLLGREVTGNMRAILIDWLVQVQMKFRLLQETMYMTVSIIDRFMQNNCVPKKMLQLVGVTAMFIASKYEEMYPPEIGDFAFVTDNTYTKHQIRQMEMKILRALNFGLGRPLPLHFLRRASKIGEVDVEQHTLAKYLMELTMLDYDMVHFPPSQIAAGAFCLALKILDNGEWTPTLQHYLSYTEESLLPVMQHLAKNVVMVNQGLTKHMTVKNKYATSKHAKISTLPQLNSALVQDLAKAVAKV

With `CC(C)Oc1c(C#N)cnc2ccc(/C=C3\SC(NCc4ccccc4Cl)=NC3=O)nc12` [Example 2] the Ki (CDK1/Cyclin B) was 150 nM, the Ki (CDK4) was > 10000 nM and the Ki (CDK2) was 610 nM.
With `CC(C)Oc1c(C#N)cnc2ccc(/C=C3\SC(NCc4cccs4)=NC3=O)nc12` [Example 4, 4-Isopropoxy-6-{4-oxo-2-[(thiophen-2-ylmethyl)-amino]-4H-thiazol-5-ylidenemethyl}-[1,5]naphthyridine-3-carbonitrile] the Ki (CDK1/Cyclin B) was 47 nM, the Ki (CDK4) was > 10000 nM and the Ki (CDK2) was 554 nM.
In the case of `CC(C)Oc1c(C#N)cnc2ccc(/C=C3\SC(N[C@@H]4C[C@H]4c4ccccc4)=NC3=O)nc12` [Example 3, 4-Isopropoxy-6-[4-oxo-2-(2-phenyl-cyclopropylamino)-4H-thiazol-5-ylidenemethyl]-[1,5]naphthyridine-3-carbonitrile], the Ki (CDK1/Cyclin B) is reported as 78 nM, the Ki (CDK4) is reported as > 10000 nM and the Ki (CDK2) is reported as 351 nM.
In the case of `CC(C)Oc1c(C#N)cnc2ccc(/C=C3\SC(N)=NC3=O)nc12` [Example 1, 6-(2-Amino-4-oxo-4H-thiazol-5-ylidenemethyl)-4-isopropoxy-[1,5]naphthyridine-3-carbonitrile], the Ki (CDK1/Cyclin B) is reported as 8 nM, the Ki (CDK4) is reported as > 10000 nM and the Ki (CDK2) is reported as 18 nM.
In the case of `Cc1cccc(Cl)c1CNC1=NC(=O)/C(=C/c2ccc3ncc(C#N)cc3n2)S1` [Example 17, 6-[2-(2-Chloro-6-methyl-benzylamino)-4-oxo-4H-thiazol-5-ylidenemethyl]-[1,5]naphthyridine-3-carbonitrile], the Ki (CDK1/Cyclin B) is reported as 539 nM and the Ki (CDK2) is reported as > 10000 nM.

Source: patent publication US7304074B2, “Substituted 1,5-naphthyridine azolinones” (Hoffmann-La Roche Inc., priority 2005, dated 2007)
